{
  "source": "patent US6537974B2",
  "about": "“Method of treating arrhythmias” (CV Therapeutics, Inc., priority 2000, dated 2003)",
  "key": {"AV node (AH interval)": {"test_system": "AV node (AH interval)", "test": "Electrophysiology study: single intravenous bolus of CVT-510, effect on AH interval, heart rate, blood pressure", "type": "in vivo, human", "description": "(§1) The effect of CVT-510 on prolongation of AH interval, a measure of an adenosine A1 mediated effect of CVT-510, and on the heart rate (sinus rate) of patients with PSVT was tested in patients undergoing a clinically indicated electrophysiology study. In the first study patients volunteers were administered a single bolus of. CVT-510. In the second study PSVT was induced in patients prior to the administration of CVT-510.\nAll antiarrhythmic agents, including digoxin, beta-blockers and calcium-channel blockers were discontinued for five half-lives prior to the study.\nPatients were excluded from the study if the PR interval was >200 ms or resting heart rate was <60 or >100/min. Other exclusion criteria included evidence of ventricular preexcitation, Class II-IV congestive heart failure or asthma. Patients were also required to have normal baseline electrophysiologic parameters, including a paced AV nodal Wenckebach cycle length 500 ms, an AH interval between 60 and 125 ms and an HV interval 35-55 ms. All patients were 18 years of age.\nQuadripolar catheters were introduced percutaneously and advanced under fluoroscopic guidance to the high right atrium and across the tricuspid annulus to record the His bundle potential. […] Data were stored on optical disk. All patients had continuous ECG and non-invasive blood pressure monitoring throughout the study.\nCardiac stimulation was performed with a programmable stimulator with an isolated constant-current source. Stimuli were delivered as rectangular pulses of 2 ms duration at four times diastolic threshold. The study design was open-label with dose escalation, with the latter determined by tolerability. A single intravenous bolus of CVT-510 was administered to each patient after baseline electrophysiologic measurements were made.\nAfter a bolus dose of CVT-510 was given, blood pressure, heart rate, 12-lead ECG and AH and HV intervals were recorded at 1, 5, 10, 15, 20 and 30 min and then every 15 min for up to 1 hour post-bolus or until the parameters returned to baseline. The AH and HV intervals were determined by measuring the last interval during a 15 beat drive at a paced cycle length of 600, 500 and 400 ms (unless precluded by pacing-induced AV nodal Wenckebach).\nAdministration of CVT-510 started at a dose of 0.3 μg/kg. Dose escalation proceeded with additional groups of patients receiving doses of 1, 3, 7.5, 10, 15 and 30 μg/kg based on tolerability and the absence of AV nodal Wenckebach or 3° AV block during sinus rhythm.\nData are expressed as mean ±SD. Based on the results of the normality test, a paired t-test or a non-parametric signed-rank test (SR) was used to determine the significance of CVT-510's effects on heart rate, blood pressure, ECG and AV nodal conduction times (AH and HV) for each dosing group (e.g., 0.3, 1.0, 3.0, 7.5, 10.0, 15.0 and 30.0 μg/kg). Similarly, analysis of variance (ANOVA) or the Kruskal-Wallis test (KW) was used to compare the AH intervals during sinus rhythm and atrial pacing at all doses. No adjustment for multiple comparisons were made, and a P value <0.05 were used to determine the significance of the differences between mean values."}, "patients with PSVT": {"test_system": "patients with PSVT", "test": "Treatment of patients with induced PSVT with CVT-510 boluses: conversion to sinus rhythm", "type": "in vivo, human", "settings": "for % conversion after Bolus 1 / % conversion after Bolus 2 / % cumulative conversion: patients with PSVT", "description": "as §1"}, "A1 adenosine receptor": {"molecular_target": "T1, A1 adenosine receptor (Homo sapiens, UniProt P30542)", "T1 sequence (P30542 1-326)": "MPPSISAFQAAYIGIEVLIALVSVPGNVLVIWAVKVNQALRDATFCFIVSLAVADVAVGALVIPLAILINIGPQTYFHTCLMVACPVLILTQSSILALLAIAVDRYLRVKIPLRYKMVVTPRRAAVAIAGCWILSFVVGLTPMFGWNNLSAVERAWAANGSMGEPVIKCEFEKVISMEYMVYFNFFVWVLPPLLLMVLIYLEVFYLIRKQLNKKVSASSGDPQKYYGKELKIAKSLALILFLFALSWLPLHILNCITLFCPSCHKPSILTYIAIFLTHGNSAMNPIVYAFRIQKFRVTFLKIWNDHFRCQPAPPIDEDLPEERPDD", "test": "Specificity for the A1 adenosine receptor: CPX antagonism, left ventricular pressure"}, "[1]": {"settings": "in vivo; cited from earlier work"}},
  "data": [
    {"smiles": "OC[C@H]1O[C@@H](n2cnc3c(N[C@@H]4CCOC4)ncnc32)[C@H](O)[C@@H]1O", "note": "[CVT-510, 6-(3-(R)-aminotetrahydrofuranyl)purine riboside]", "values": [
      {"measurement": "effect on AV nodal conduction", "setting": "AV node (AH interval); bolus doses 0.3-30 μg/kg, patients", "result": "slows AV nodal conduction in a dose-dependent manner"},
      {"measurement": "time of maximal effect on the AH interval after dosing", "setting": "AV node (AH interval); dose of 7.5 μg/kg, human patients", "result": "one"},
      {"measurement": "half-life compared with adenosine", "setting": "AV node (AH interval); in vivo", "result": "relatively long"},
      {"measurement": "effect on sinus rate", "setting": "AV node (AH interval); patients", "result": "no effect"},
      {"measurement": "effect on systemic blood pressure", "setting": "AV node (AH interval); patients", "result": "no effect"},
      {"measurement": "onset of action", "setting": "AV node (AH interval); post-administration", "result": "≤ 1", "unit": "min"},
      {"measurement": "time by which effects were mostly eliminated", "setting": "AV node (AH interval); post-administration", "result": "≤ 20", "unit": "min"},
      {"measurement": "% conversion after Bolus 1", "setting": "patients with PSVT; Dose Level 3 (n = 4)", "result": 75, "unit": "%"},
      {"measurement": "% conversion after Bolus 2", "setting": "patients with PSVT; Dose Level 3 (n = 4)", "result": 25, "unit": "%"},
      {"measurement": "% cumulative conversion", "setting": "patients with PSVT; Dose Level 3 (n = 4)", "result": 100, "unit": "%"},
      {"measurement": "% conversion after Bolus 1", "setting": "patients with PSVT; Dose Level 5 (n = 9)", "result": 78, "unit": "%"},
      {"measurement": "% conversion after Bolus 2", "setting": "patients with PSVT; Dose Level 5 (n = 9)", "result": 0, "unit": "%"},
      {"measurement": "% cumulative conversion", "setting": "patients with PSVT; Dose Level 5 (n = 9)", "result": 78, "unit": "%"},
      {"measurement": "% conversion after Bolus 1", "setting": "patients with PSVT; Dose Level 7.5 (n = 4)", "result": 100, "unit": "%"},
      {"measurement": "% conversion after Bolus 2", "setting": "patients with PSVT; Dose Level 7.5 (n = 4)", "result": 0, "unit": "%"},
      {"measurement": "% cumulative conversion", "setting": "patients with PSVT; Dose Level 7.5 (n = 4)", "result": 100, "unit": "%"},
      {"measurement": "% conversion after Bolus 1", "setting": "patients with PSVT; Dose Level 10 (n = 5)", "result": 90, "unit": "%"},
      {"measurement": "% conversion after Bolus 2", "setting": "patients with PSVT; Dose Level 10 (n = 5)", "result": 0, "unit": "%"},
      {"measurement": "% cumulative conversion", "setting": "patients with PSVT; Dose Level 10 (n = 5)", "result": 90, "unit": "%"},
      {"measurement": "% conversion after Bolus 1", "setting": "patients with PSVT; Dose Level 12.5 (n = 4)", "result": 75, "unit": "%"},
      {"measurement": "% conversion after Bolus 2", "setting": "patients with PSVT; Dose Level 12.5 (n = 4)", "result": 25, "unit": "%"},
      {"measurement": "% cumulative conversion", "setting": "patients with PSVT; Dose Level 12.5 (n = 4)", "result": 100, "unit": "%"},
      {"measurement": "% conversion after Bolus 1", "setting": "patients with PSVT; Dose Level 15 (n = 10)", "result": 80, "unit": "%"},
      {"measurement": "% conversion after Bolus 2", "setting": "patients with PSVT; Dose Level 15 (n = 10)", "result": 10, "unit": "%"},
      {"measurement": "% cumulative conversion", "setting": "patients with PSVT; Dose Level 15 (n = 10)", "result": 90, "unit": "%"},
      {"measurement": "HV prolongation", "setting": "patients with PSVT; at low concentrations", "result": "without causing"},
      {"measurement": "depressing sinus or AV nodal conduction after restoring SR", "setting": "patients with PSVT; at low concentrations", "result": "without causing"},
      {"measurement": "hypotension", "setting": "patients with PSVT; at low concentrations", "result": "without causing"},
      {"measurement": "termination of PSVT", "setting": "patients with PSVT; at low concentrations", "result": "rapidly terminates PSVT"},
      {"measurement": "effect on dpdt^−1 max", "setting": "A1 adenosine receptor", "result": "no effect"},
      {"measurement": "effect on left ventricular pressure", "setting": "A1 adenosine receptor", "result": "no effect"},
      {"measurement": "effects on the AV node in the presence of the selective A1 receptor antagonist CPX", "setting": "A1 adenosine receptor; with CPX, effects on coronary conductance not abolished", "result": "completely abolished"}
    ]},
    {"smiles": "C[C@H]1O[C@@H](O[C@H]2[C@@H](O)C[C@H](O[C@H]3[C@@H](O)C[C@H](O[C@H]4CC[C@@]5(C)[C@H](CC[C@@H]6[C@@H]5C[C@@H](O)[C@]5(C)[C@@H](C7=CC(=O)OC7)CC[C@]65O)C4)O[C@@H]3C)O[C@@H]2C)C[C@H](O)[C@@H]1O", "note": "[Digoxin]", "values": [
      {"measurement": "delayed onset of action", "setting": "[1]", "result": "about 30 min"},
      {"measurement": "time to peak effects after administration", "setting": "[1]", "result": "3 to 4", "unit": "h"}
    ]}
  ]
}
